According to ChEMBL document CHEMBL3763155 (Bioorg Med Chem Lett, 2016):

Tests used:
[1] = Displacement of 125I-[Sar1,Leu8] angiotensin-2 from rat type 1 angiotensin-2 receptor expressed in African green monkey COS7 cells after 24 hrs; format: cell-based; settings: cos-7
[2] = molecular target: T1, Type-2 angiotensin II receptor (Homo sapiens, UniProt P50052); assay: Binding affinity to type-2 angiotensin-2 receptor (unknown origin)
T1 sequence (P50052 whole entry): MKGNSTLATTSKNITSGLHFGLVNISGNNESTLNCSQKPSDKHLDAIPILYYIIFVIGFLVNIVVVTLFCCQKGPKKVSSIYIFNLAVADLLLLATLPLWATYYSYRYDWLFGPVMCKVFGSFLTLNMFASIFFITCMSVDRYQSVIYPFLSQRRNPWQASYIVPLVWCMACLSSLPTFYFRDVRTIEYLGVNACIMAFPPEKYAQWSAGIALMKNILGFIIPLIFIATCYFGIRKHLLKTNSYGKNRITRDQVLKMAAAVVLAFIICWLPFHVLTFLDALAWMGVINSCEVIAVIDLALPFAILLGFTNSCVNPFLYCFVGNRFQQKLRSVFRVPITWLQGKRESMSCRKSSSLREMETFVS

Row | SMILES | Ki [1] [nM] | Ki [2] [nM] | IC50 [1] [nM]
1 | CCOc1nc2cccc(C(=O)O)c2n1Cc1ccc(-c2ccccc2-c2nnn[nH]2)cc1 | 0.17 | > 10000 | 
2 | CCCCOC(=O)NS(=O)(=O)c1ccc(CC(C)C)cc1-c1ccc(Cn2c(CC)nc3c(C)cc(C)nc32)cc1 |  |  | 2.1
3 | CCCCOC(=O)NS(=O)(=O)c1ccc(CCC)cc1-c1ccc(Cn2c(CC)nc3c(C)cc(C)nc32)cc1 |  |  | 1.5
4 | CC[C@H](C)[C@H](NC(=O)[C@H](Cc1ccc(O)cc1)NC(=O)[C@@H](NC(=O)[C@H](CCCNC(=N)N)NC(=O)[C@@H](N)CC(=O)O)C(C)C)C(=O)N[C@@H](Cc1cnc[nH]1)C(=O)N1CCC[C@H]1C(=O)N[C@@H](Cc1ccccc1)C(=O)O [ANGIOTENSIN II] | 0.95 |  | 
5 | CCCCOC(=O)NS(=O)(=O)c1sc(CC(C)C)cc1-c1ccc(Cn2ccnc2)cc1 [BULOXIBUTID] | > 10000 |  | 
6 | CCCCc1nc(Cl)c(CO)n1Cc1ccc(-c2ccccc2-c2nnn[nH]2)cc1 [LOSARTAN] |  |  | 12.1
7 | COc1ccc2c(c1OCc1ccccc1)C[C@@H](C(=O)O)N(C(=O)C(c1ccccc1)c1ccccc1)C2 [OLODANRIGAN] | 409 |  | 
